Experiment [1] has as its target T1, Receptor-interacting serine/threonine-protein kinase 4 (Homo sapiens) (UniProt P57078).
T1 sequence (whole entry): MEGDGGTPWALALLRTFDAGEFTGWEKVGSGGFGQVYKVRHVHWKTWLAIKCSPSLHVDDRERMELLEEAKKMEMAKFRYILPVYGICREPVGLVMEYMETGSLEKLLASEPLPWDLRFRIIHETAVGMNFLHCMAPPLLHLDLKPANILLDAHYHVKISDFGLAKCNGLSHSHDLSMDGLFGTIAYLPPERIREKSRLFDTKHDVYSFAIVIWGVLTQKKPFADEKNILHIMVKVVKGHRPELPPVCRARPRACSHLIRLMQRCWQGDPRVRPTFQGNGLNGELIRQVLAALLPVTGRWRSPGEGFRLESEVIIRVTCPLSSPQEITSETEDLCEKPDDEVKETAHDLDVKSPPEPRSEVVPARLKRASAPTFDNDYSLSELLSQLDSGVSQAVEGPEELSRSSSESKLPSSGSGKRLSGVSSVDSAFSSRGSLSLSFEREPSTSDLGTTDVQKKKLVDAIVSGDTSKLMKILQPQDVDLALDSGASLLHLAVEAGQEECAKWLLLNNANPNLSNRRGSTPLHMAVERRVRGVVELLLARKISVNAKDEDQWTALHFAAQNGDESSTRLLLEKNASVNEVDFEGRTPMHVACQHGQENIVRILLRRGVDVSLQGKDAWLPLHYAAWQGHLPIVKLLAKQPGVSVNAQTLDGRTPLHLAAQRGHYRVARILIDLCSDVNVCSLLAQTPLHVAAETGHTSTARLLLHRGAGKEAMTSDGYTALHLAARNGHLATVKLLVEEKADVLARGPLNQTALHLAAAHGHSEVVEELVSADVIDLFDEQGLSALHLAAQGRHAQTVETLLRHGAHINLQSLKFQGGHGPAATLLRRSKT
The experiment is described as follows: Selectivity interaction (Ambit KINOMEscan and KiNATiv profiling in Jurkat cells) EUB0000090b RIPK4. It is filed as cell-based. As to conditions: at 1 µM.

Experiment [2] deals with Tyrosine-protein kinase Fer (Homo sapiens) (UniProt P16591). In words: Selectivity interaction (KinomeScan (DiscoverX)) EUB0000229b FER. As to conditions: at 10 µM.
Tyrosine-protein kinase Fer (Homo sapiens), sequence (P16591 whole entry, looked up, canonical isoform): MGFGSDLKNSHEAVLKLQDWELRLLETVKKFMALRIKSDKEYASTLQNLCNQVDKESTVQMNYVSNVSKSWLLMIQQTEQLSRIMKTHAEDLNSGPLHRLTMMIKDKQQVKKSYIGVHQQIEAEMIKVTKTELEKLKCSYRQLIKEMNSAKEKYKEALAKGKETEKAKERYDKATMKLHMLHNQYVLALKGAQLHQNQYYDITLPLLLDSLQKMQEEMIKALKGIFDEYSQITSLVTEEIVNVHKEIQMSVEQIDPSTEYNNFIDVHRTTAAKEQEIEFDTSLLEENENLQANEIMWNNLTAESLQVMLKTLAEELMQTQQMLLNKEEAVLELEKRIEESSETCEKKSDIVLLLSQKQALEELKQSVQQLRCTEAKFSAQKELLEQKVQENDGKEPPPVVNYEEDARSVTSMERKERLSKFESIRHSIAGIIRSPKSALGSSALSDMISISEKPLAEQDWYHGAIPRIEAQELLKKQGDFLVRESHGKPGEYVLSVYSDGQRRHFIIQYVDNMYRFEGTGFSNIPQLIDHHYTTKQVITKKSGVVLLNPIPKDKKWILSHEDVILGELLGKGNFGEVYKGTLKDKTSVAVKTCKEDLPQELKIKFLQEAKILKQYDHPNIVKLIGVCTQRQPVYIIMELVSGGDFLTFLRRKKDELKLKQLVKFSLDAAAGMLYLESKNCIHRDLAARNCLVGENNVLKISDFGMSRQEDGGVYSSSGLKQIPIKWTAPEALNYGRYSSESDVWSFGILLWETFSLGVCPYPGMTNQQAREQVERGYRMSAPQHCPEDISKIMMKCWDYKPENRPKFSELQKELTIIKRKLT
Experiment [3] deals with Casein kinase I isoform gamma-3 (Homo sapiens) (UniProt Q9Y6M4). The experiment is described as follows: Selectivity interaction (KinomeScan (DiscoverX)) EUB0001079a CSNK1G3. As to conditions: at 1 µM.
Casein kinase I isoform gamma-3 (Homo sapiens), sequence (Q9Y6M4 whole entry, looked up, canonical isoform): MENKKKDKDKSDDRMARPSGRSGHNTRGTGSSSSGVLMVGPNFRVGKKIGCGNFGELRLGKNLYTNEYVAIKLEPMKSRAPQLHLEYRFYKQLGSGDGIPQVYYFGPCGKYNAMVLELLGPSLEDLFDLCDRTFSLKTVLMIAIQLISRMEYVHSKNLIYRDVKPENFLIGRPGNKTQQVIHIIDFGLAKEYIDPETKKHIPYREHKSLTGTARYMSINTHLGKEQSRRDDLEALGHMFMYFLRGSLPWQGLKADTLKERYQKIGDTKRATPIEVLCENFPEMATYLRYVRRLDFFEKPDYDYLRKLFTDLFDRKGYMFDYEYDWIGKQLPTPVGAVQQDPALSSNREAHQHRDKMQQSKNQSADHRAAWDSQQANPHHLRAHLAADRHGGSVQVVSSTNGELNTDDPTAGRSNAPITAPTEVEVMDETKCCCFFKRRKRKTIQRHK
Experiment [4] deals with Sodium-dependent noradrenaline transporter (Homo sapiens, UniProt P23975). In words: Selectivity interaction (Safety Panel 44tm (Eurofins)) EUB0000162b SLC6A2. As to conditions: at 10 µM.
Sodium-dependent noradrenaline transporter, sequence (P23975 whole entry): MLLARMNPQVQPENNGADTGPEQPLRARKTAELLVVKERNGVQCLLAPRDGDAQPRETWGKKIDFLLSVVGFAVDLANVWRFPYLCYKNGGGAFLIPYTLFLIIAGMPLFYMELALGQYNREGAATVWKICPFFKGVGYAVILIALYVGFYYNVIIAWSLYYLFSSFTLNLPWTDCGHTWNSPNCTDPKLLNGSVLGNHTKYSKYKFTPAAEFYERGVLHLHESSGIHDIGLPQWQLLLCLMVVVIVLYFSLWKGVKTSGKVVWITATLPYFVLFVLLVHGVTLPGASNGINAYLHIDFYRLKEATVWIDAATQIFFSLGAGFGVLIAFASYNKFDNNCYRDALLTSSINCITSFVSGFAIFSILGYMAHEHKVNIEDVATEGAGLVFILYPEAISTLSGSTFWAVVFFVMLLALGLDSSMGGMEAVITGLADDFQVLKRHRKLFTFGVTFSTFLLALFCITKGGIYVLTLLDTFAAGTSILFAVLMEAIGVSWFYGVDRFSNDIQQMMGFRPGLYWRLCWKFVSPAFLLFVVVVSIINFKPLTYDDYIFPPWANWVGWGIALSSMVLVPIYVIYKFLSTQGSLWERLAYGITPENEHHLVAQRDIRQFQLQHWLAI
Experiment [5] deals with MAP/microtubule affinity-regulating kinase 3 (Homo sapiens) (UniProt P27448). In words: Selectivity interaction (ActivX KiNativ screen (kinase selectivity in THP-1 cell lysates)) EUB0000639a MARK3. It is filed as subcellular. As to conditions: lysate, at 0.01 µM.
MAP/microtubule affinity-regulating kinase 3 (Homo sapiens), sequence (P27448 whole entry, looked up): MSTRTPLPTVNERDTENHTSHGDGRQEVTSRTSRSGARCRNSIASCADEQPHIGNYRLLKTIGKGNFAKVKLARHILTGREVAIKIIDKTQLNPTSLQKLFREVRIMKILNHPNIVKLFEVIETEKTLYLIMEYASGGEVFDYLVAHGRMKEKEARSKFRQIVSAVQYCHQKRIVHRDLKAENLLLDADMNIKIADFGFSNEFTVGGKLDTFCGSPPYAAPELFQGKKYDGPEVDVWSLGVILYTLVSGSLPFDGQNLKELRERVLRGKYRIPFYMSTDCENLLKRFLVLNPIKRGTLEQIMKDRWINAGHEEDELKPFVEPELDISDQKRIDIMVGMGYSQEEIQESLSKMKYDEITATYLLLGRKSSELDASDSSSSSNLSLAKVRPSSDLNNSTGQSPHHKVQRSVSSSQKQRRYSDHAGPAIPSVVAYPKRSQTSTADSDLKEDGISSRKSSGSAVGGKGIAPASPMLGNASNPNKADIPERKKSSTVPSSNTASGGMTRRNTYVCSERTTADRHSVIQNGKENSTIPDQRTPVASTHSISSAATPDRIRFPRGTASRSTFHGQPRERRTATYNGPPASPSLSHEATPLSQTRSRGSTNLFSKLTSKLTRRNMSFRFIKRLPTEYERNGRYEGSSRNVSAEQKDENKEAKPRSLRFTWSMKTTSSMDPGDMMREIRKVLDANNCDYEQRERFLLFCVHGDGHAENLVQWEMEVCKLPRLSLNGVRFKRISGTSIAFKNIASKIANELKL
The target in experiment [6] is BMP-2-inducible protein kinase (Homo sapiens) (UniProt Q9NSY1). As to conditions: at 10 µM.
BMP-2-inducible protein kinase (Homo sapiens), sequence (Q9NSY1 whole entry, looked up): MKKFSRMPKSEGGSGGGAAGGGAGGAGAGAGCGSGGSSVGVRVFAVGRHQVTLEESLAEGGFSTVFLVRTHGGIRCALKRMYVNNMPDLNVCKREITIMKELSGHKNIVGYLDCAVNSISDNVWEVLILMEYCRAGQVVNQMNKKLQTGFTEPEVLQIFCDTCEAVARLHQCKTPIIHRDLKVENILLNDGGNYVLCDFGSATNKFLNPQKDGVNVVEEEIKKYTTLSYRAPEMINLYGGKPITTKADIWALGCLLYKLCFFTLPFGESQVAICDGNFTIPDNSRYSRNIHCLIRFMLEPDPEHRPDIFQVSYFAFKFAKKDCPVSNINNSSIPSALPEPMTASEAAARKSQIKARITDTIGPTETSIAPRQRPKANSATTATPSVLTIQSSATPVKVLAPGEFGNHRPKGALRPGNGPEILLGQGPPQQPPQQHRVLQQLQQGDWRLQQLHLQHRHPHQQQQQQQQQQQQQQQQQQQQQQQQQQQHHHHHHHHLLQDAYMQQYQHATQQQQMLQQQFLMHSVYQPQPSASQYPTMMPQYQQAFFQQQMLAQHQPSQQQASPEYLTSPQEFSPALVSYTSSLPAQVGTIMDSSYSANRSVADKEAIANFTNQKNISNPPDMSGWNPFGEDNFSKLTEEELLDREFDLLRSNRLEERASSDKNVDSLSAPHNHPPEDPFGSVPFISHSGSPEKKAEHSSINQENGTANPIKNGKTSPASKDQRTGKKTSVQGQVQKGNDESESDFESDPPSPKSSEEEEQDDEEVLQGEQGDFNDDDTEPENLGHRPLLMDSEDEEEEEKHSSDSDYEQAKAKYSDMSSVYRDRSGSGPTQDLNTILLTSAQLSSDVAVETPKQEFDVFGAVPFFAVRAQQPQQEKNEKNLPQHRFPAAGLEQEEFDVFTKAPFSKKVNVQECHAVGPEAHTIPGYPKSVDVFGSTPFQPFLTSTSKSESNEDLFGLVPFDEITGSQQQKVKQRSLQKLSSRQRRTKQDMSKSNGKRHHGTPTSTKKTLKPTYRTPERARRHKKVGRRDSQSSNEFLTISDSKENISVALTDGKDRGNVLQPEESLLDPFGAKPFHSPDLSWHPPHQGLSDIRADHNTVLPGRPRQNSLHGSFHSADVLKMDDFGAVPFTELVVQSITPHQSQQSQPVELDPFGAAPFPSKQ
The target of experiment [7] is Bromodomain-containing protein 4 (Homo sapiens, UniProt O60885). In words: Selectivity interaction (Human bromodomain panel (DSF assay)) EUB0000233b BRD4.
Experiment [8] addresses Beta-2 adrenergic receptor (Homo sapiens, UniProt P07550). The experiment is described as follows: Selectivity interaction (Eurofins CEREP Diversity Profile (receptors and ion channels)) EUB0000279b ADRB2. As to conditions: at 10 µM.
Experiment [9] deals with T2, Ephrin type-B receptor 4 (Homo sapiens) (UniProt P54760).
T2 sequence (whole entry): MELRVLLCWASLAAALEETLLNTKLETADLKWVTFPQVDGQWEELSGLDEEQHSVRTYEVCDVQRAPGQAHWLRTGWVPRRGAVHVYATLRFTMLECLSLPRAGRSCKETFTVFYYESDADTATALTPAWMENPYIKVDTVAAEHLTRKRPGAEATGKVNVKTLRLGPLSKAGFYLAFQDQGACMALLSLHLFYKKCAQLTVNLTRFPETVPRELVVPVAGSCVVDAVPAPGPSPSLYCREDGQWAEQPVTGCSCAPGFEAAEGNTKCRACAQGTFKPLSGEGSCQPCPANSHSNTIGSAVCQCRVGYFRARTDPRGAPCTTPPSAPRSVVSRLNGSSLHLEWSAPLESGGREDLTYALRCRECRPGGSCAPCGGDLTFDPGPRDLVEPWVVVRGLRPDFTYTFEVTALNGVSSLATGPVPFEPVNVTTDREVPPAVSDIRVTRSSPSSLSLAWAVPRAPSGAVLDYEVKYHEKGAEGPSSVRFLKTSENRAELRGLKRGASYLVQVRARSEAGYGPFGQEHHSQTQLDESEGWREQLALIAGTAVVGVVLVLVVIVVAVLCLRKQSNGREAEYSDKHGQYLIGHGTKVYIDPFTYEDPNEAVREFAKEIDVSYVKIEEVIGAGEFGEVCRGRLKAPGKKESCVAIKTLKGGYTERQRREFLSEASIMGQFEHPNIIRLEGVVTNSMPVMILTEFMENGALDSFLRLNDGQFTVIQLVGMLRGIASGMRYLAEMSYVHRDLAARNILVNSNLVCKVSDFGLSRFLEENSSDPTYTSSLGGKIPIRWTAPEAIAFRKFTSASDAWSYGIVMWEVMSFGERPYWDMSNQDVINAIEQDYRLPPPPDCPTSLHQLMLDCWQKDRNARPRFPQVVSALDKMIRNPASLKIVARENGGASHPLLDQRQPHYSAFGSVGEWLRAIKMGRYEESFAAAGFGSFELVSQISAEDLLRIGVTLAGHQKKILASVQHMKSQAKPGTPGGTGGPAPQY
In words: Selectivity interaction (KinomeScan (DiscoverX)) EUB0000045b EPHB4.

Beta-2 adrenergic receptor, sequence (P07550 whole entry, looked up): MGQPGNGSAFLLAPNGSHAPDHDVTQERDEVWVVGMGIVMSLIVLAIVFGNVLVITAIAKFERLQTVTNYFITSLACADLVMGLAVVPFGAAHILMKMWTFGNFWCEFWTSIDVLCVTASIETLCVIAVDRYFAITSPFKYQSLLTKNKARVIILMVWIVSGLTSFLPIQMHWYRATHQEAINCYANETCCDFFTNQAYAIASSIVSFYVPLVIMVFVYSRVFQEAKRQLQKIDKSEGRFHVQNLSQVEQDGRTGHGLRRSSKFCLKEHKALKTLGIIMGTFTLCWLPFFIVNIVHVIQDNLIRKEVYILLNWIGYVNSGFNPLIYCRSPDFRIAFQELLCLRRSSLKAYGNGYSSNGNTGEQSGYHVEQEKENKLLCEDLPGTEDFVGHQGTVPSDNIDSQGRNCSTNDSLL

Regarding `CN(C)C/C=C/C(=O)Nc1ccc(C(=O)N2CCCC(Nc3ncc(Cl)c(-c4c[nH]c5ccccc45)n3)C2)cc1` (stereo not given), the % of control in experiment [1] is 86%. As for `COc1cc(N(C)c2ccnc3ccc(C(F)(F)F)cc23)cc(OC)c1OC`, the % binding in experiment [2] stood at 95%. Take `Nc1cnc(N2CCc3cc(S(=O)(=O)Nc4c(F)cc(Cl)cc4F)cc(N4CCCC4=O)c32)nc1` [TP-020n]: in [3], the % of control was 78%. Compound `CN(C)C(=O)Cn1cc(-c2ccc(-c3cncc4ccccc34)cc2)cn1` came in with a % of control in [4] of 89%. In experiment [5], `CC[C@@H]1[C@H](F)C(=O)N[C@@H]1COc1nccc2cc(C(N)=O)c(OC)cc12` [ZIMLOVISERTIB] yielded a % of inhibition of 2.3%.

In the case of `CCN(CC)CCCCNc1ncc2cc(-c3cc(OC)cc(OC)c3)c(NC(=O)NC(C)(C)C)nc2n1`, in experiment [6], the % of control turned out to be 100%. `CN(C)CCCOc1ccc(-c2cc(NCCCn3cccn3)nc(S(C)(=O)=O)n2)cc1`: the dTM in [7] is less than 2 K. The compound `CC(=O)c1cc(-c2ccccc2OCC2CC2)c2ncccn12` showed a % of control in experiment [8] of 99%. Regarding `C=CC(=O)Nc1cc(-n2c(=O)ccc3cnc4ccc(-c5ccc(NS(C)(=O)=O)cc5)cc4c32)ccc1C`, the % of control in experiment [9] (at 1 µM) and in experiment [9] (at 10 µM) was 100% in each case.

The values above are taken from ChEMBL document CHEMBL5465560, “Selectivity Literature for EUbOPEN Chemogenomic Library” (2024).
